According to patent publication US7273856B2, “Linear basic compounds having NK-2 antagonist activity and formulations thereof” (Menarini Ricerche S.P.A., priority 2001, dated 2007):
Structures can show the parent of a compound that is named as a salt.

Target: T1, human NK-2 receptor (Homo sapiens, UniProt P21452)
T1 construct: expressed in transfected cells; host or cells: CHO (Chinese hamster ovary) cells, membranes
T1 sequence (P21452 1-398): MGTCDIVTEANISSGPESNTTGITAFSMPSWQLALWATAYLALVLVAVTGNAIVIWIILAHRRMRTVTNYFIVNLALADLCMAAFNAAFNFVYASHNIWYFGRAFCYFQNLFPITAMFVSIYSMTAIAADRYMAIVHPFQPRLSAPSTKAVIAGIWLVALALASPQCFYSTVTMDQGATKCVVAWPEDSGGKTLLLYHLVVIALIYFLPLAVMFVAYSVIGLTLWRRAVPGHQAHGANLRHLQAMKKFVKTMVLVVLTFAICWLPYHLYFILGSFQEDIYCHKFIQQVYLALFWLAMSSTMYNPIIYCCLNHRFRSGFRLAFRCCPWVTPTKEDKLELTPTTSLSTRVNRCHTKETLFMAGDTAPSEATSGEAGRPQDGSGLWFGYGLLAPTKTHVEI
Assay: binding test, affinity for the human NK-2 receptor, competition with [125I]NKA on transfected CHO cell membranes
Settings: CHO cell membranes transfected with NK-2 receptor of human ileum; [125I]NKA 100 pM; 30 min, 20° C.
Description: The evaluation of the antagonist activity on NK-2 receptors has been assessed by binding and functional tests according to that already described in literature in relation to NK-2 antagonists.
The test substances have been tested within a concentration range from 0.01 nM to 10 nM. At the end of the incubation time (30 min, 20° C.) the samples have been filtered and radioactivity has been determined using a gamma-counter.

| Ki [nM] | pKi | Molecule |
| --- | --- | --- |
| 0.126 |  | O=C(NC1(C(=O)N[C@H](Cc2ccccc2)C(=O)NCC2CN(CC3CCOCC3)C2)CCCC1)c1cc2ccccc2s1 [Example 152, Benzo[b]thiophene-2-carboxylic acid [1-(2-phenyl-1(R)-{[1-(tetrahydro-pyran-4-ylmethyl)-azetidin-3-ylmethyl]-carbamoyl}-ethylcarbamoyl)-cyclopentyl]-amide] |
| 0.0631 |  | O=C(NC1(C(=O)N[C@H](Cc2ccccc2)C(=O)NCC2CCN(CC3CCOCC3)CC2)CCCC1)c1cc2cccc(C(F)(F)F)c2s1 [Example 136, 7-Trifluoromethyl-benzo[b]thiophene-2-carboxylic acid [1-(2-phenyl-1R-{[1-(tetrahydro-pyran-4-ylmethyl)piperidin-4-ylmethyl]-carbamoyl}-ethylcarbamoyl)-cyclopentyl]-amide] |
|  | 9.6 | N^γ{N^α[N^α(benzo[b]thiophen-2-ylcarbonyl)-1-aminocyclopentan-1-carboxy]-D-phenylalanyl}-(1R,3S)-3-aminocyclopentane-1-carboxylic-acid-N-((1S,2S)2-dimethylaminocyclohexyl) amide hydrochloride salt [Example 8] |

Continued, molecule first:

| Molecule | Ki [nM] | pKi |
| --- | --- | --- |
| CCN1CCC(CNC(=O)[C@@H](Cc2ccccc2)NC(=O)C2(NC(=O)c3ccc4cc(Br)ccc4c3)CCCC2)CC1 [Example 76, 6-Bromo-naphthalene-2-carboxylic acid (1-{1(R)-[(1-ethyl-piperidin-4-ylmethyl)-carbamoyl]-2-phenyl-ethylcarbamoyl}-cyclopentyl)-amide] | 1 |  |
| O=C(NC1(C(=O)N[C@H](Cc2ccccc2)C(=O)NCCCN2CCOCC2)CCCC1)c1cc2cc(Cl)ccc2o1 [Example 102, 5-Chloro-benzofuran-2-carboxylic acid {1-[1R-(3-morpholin-4-yl-propylcarbamoyl)-2-phenyl-ethylcarbamoyl]-cyclopentyl}-amide] | 0.501 |  |
| Cc1ccc(C[C@@H](NC(=O)C2(NC(=O)c3cc4ccccc4s3)CCCC2)C(=O)N[C@H]2CC[C@@H](C(=O)N[C@H]3CCCC[C@@H]3N(C)C)C2)cc1 [Example 9, N^γ{N^α[N^α(benzo[b]thiophen-2-ylcarbonyl)-1-aminocyclopentan-1-carboxy]-D-4-methyl-phenylalanyl}-(1R,3S)-3-aminocyclopentane-1-carboxylic-acid-N-(1S,2S)-2-dimethyl aminocyclohexyl)amide hydrochloride salt] | 1.58 |  |
| Nc1ccc2cc(C(=O)NC3(C(=O)N[C@H](Cc4ccccc4)C(=O)NCCCN4CCOCC4)CCCC3)sc2c1 [Example 115, 6-Amino-benzo[b]thiophene-2-carboxylic acid {1-[1R-(3-morpholin-4-yl-propylcarbamoyl)-2-phenyl-ethylcarbamoyl]-cyclopentyl]-amide] | 3.16 |  |
| NC1(C(=O)N2CCC(CNC(=O)[C@@H](Cc3ccccc3)NC(=O)C3(NC(=O)c4cc5ccccc5s4)CCCC3)CC2)CCCCC1 [Example 96, Benzo[b]thiophene-2-carboxylic acid [1-(1(R)-{[1-(1-aminocyclohexanecarbonyl)-piperidin-4-ylmethyl]-carbamoyl}-2-phenyl-ethylcarbamoyl)-cyclopentyl]-amide TFA salt] | 0.1 |  |
| Cc1ccc(C[C@@H](NC(=O)C2(NC(=O)c3ccc(-c4ccccc4)cc3)CCCC2)C(=O)N[C@H]2CC[C@@H](C(=O)N[C@H]3CCCC[C@@H]3N)C2)cc1 [Example 16, N^γ{N^α[N^α(biphenyl-4-carboxy)-1-aminocyclopentan-1-carboxy]-R-3(4(methyl)phenyl)alanyl}-(1R,3S)-3-aminocyclopentane-1-carboxylic-acid-N-((1S,2S)-2-aminocyclohexyl) amide hydrochloride salt] | 0.501 |  |
